Measurements from US7655395B2, “Isolation and use of ryanodine receptors” (E.I. du Pont de Nemours and Company, priority 2002, dated 2010).

Columns and labels:
[1] = target: native cockroach ryanodine receptors (roach femoral muscle membranes) (Periplaneta americana, UniProt A0ABQ8T696); test: Radioligand displacement ([3H]-GN analog Cpd 1) on roach femoral muscle membranes; format: binding
Description: Binding to Roach Femoral Muscle Membranes:
Assays were carried out in triplicate.

[2] = tested on: recombinant Heliothis virescens ryanodine receptor (expressed in Sf9 cells); test: Calcium release assay, Sf9 cells transiently or stably expressing Heliothis virescens ryanodine receptor (Fura-2); format: cell-based; conditions: for calcium response: Sf9 stably expressing H. virescens ryanodine receptor, FIG. 5
Description: SF9 cells were grown at 27 degrees C. in a Corning 125 ml polycarbonate Erlenmeyer flask to a density of 3.1 million cells per ml in SF900-II serum free media (Gibco catalog no. 10902-088, Invitrogen™, Carlsbad, Calif.). One million cells were transferred to one well of a Corning 6-well, flat bottom cell culture dish (Corning Inc., Acton, Mass., catalog no. 3516). SF900-II media was used to bring the final volume in the dish to 2 ml and the cells were incubated at 27 degrees C. for 21 h. Following the incubation the media was aspirated from the dish and replaced with 1 ml of SF900-II media pre-warmed to 27 degrees C.
In the case of the vectors containing the Cre recognition elements, the transfection solution was mixed in a 1.5 ml microfuge tube by combining 5 ug of pHE7 plasmid, 5 ug of pMLS104 Cre plasmid and 0.5 ug of lacZ reporter plasmid, 15 ug of cellfectin reagent (Invitrogen cat. #10362-010) and SF900-II serum free media (Gibco catalog #10902-088, Invitrogen™, Carlsbad, Calif.) in a total volume of 500 ul. The solution was incubated for 1 hour at room temperature just prior to the transfection.
The transfection was accomplished by adding the transfection solution drop-wise to the dish and incubating 4 h at room temperature with gentle rocking. After the 4 h incubation the media was replaced with 2 ml of SF900-II media pre-warmed to 27 degrees C. and the cells were incubated 3 days at 27 degrees C.
Several drops of a suspension of recombinant Spodoptera frugiperda cell line, Sf9, transiently expressing insect ryanodine receptors were placed on a poly-L-lysine-coated coverslip and allowed to attach. Cells were then rinsed in physiological saline having the following composition (mM): NaCl 130; KCl 5.4; MgCl2 1.2; CaCl2 1.0; NaHCO3 4.2; NaH2P04 7.3; Glucose 10; Sucrose 63; MES 20; pH 6.3. Cells were then bathed in physiological saline containing the calcium sensitive fluoroprobe, Fura-2 AM (2 μM), and Pluronic F127 (0.002%) for 30 min. Cells were rinsed in standard physiological saline for at least 15 min prior to testing. […]
For studies involving the stable recombinant Spodoptera frugiperda cell line, Sf9, (other cell lines could also be used such as Sf21, S2, etc) expressing an insect ryanodine receptor from Drosophila melanogaster, or Heliothis virescens (alternatively receptors from other species such as Myzus persicae, Peregrinus maidis, Aphis gossypii, etc) were grown in T75 (or other appropriate sized) flasks in supplemented Grace's insect medium. […] After a 30 minute equilibration period the cell plate was tested using a Molecular Devices' FlexStation™ system with dual wavelength excitation (340 and 380 nm) and fluorescence emission measured at 510 nm. […]

native cockroach ryanodine receptors (roach femoral muscle membranes), sequence (A0ABQ8T696 entry or part of it): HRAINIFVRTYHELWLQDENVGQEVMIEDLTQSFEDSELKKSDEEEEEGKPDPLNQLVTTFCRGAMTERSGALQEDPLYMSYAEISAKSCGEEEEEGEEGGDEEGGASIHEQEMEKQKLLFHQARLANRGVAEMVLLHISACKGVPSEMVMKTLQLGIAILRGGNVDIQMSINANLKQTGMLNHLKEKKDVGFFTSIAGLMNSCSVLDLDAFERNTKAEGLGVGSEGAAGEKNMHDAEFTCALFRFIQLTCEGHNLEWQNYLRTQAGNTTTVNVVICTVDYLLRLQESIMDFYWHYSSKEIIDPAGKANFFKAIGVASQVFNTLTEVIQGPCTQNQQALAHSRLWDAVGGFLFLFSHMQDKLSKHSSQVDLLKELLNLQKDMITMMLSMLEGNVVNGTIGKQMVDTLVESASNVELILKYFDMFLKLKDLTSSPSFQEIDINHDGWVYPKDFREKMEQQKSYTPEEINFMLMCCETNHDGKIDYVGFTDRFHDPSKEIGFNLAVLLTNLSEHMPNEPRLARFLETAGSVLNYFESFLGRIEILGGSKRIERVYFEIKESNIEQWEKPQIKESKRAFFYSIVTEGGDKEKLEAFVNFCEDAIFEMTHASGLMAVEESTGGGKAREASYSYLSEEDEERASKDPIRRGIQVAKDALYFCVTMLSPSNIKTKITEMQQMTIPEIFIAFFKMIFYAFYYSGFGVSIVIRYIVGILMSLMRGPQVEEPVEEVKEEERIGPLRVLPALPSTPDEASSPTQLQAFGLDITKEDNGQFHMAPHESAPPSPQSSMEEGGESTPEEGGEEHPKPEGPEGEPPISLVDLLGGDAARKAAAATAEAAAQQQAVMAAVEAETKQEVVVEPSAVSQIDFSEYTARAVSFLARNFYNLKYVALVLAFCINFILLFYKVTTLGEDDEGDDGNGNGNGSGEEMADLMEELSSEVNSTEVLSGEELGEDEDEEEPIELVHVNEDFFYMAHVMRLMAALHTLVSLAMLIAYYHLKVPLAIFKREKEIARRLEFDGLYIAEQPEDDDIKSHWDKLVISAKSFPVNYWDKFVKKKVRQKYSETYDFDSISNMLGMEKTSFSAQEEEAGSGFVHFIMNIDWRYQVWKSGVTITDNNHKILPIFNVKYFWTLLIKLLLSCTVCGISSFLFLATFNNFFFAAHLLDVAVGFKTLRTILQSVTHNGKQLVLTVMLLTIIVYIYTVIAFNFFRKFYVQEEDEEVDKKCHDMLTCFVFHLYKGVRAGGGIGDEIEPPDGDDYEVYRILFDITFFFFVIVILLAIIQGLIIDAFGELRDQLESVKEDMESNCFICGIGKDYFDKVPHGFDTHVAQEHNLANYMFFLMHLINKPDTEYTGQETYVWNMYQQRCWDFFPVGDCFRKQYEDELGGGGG

Row | SMILES | Radioligand Displacement (P. americana) ([1]; Table 6, result in words) | calcium response ([2]; caffeine 10 mM) | cytosolic [Ca2+] response ([2]; caffeine 10 mM, Sf9 transiently expressing H. virescens ryanodine receptor, 72 hr post-transfection, FIG. 4) | IC50 ([1]; displacement of [3H]-Cpd 1, roach muscle membranes, 60 min at 32° C., read-out: Displacement IC50 (nM) P. americana) | calcium response ([2]; Compound 14 1 μM)
1 | Cn1c(=O)c2c(ncn2C)n(C)c1=O [Caffeine, reference compound] | Inactive | calcium responses elicited | increase in cytosolic [Ca^2+] | – | –
2 | CNC(=O)c1cc(Cl)cc(C)c1NC(=O)c1cc(Br)nn1-c1ncccc1Cl [Cpd 14] | – | – | – | < 300 nM | calcium responses elicited
